{"source": "patent US20230210735A1", "about": "“PREVENTION, REDUCTION, OR AMELIORATION OF OLD PERSON SMELL” (Firmenich SA, priority 2020, published 2023)", "key": {"[1]": {"assay": "POV by titration in formulated ranch salad dressing", "from_the_text": "Blank Samples: In all of the experiments below, an Untreated Oil (Blank) sample was maintained. The Blank was always packaged, stored, handled, and sampled in exactly the same manner as the Treated Sample, excepting the addition of the 2-oxoacid salt. In this way, the effect of the atmospheric oxygen in the headspace volume would be similar. For example, the ratio of the headspace volume to the volume of oil, and the area of contact between the headspace and the oil surface, would be the same for Treated and Untreated samples.\nInto 30 mL glass vial was placed 15 g of a commercial salad dressing that had been stored in the lab at room temperature for an unknown but extended period after opening. To this vial, 0.4002 g of PhPA-DiMeC 10A was added and mixed well. The mixture was allowed to stand on the bench top under ambient laboratory light at room temperature. Periodically, measurements were recorded of the POV by titration, rancid-smelling aldehydes by HPLC with DNPH derivatization (see method above), and sensory evaluation."}, "[2]": {"assay": "Aldehyde and ketone reaction products by HPLC with DNPH derivatization in a soap formulation", "conditions": "treated vs untreated soap, peak area", "experimental": "The extent of rancidity in the soap formulation tested was determined by measuring the content of aldehyde and ketone reaction products of the soap oils present. DNPH derivatives of aldehydes/ketone products in soap and treated soap were synthesized as follows:\n0.1000 g of a soap formulation, either treated or untreated with DiMeC10A-PhPA were separately measured and diluted to 12 mL by the addition of propan-2-ol. 1 mL of this prepared diluted mixture was added to 1 mL of diluted DNPH solution which was prepared separately by mixing DNPH (3 g/L) and 3% HCL and diluted into 12 mL by the addition of propan-2-ol. The reaction vial was stirred and kept at 40C for 1 hr to accelerate derivatization reaction. Then it was cooled to room temperature and neutralized with 20% triethylamine and centrifuged at 5000 rpm for 5 min. The sample was then injected into the HPLC column."}, "[3]": {"assay": "POV reduction in model citrus perfume (mixed citrus oil in 90/10 v/v ethanol/water)", "conditions": "for % POV Reduction: model citrus perfume, vs untreated sample"}}}
{"smiles": "CCCCCCCCCCN(C)C.O=C(O)C(=O)Cc1ccccc1", "note": "[DiMeC10A-PhPA]", "values": [{"measurement": "% of reduction in POV", "setting": "[1]; 50 mins since addition", "result": 0, "unit": "%"}, {"measurement": "% of reduction in POV", "setting": "[1]; 6 hrs since addition", "result": 53, "unit": "%"}, {"measurement": "% of reduction in POV", "setting": "[1]; 26 hrs since addition", "result": 62, "unit": "%"}, {"measurement": "2-nonenal % reduction", "setting": "[2]", "result": 52.4, "unit": "%"}, {"measurement": "decanal % reduction", "setting": "[2]", "result": 55.8, "unit": "%"}, {"measurement": "heptanal % reduction", "setting": "[2]", "result": 60, "unit": "%"}, {"measurement": "hexanal % reduction", "setting": "[2]", "result": 66.7, "unit": "%"}, {"measurement": "nonanal % reduction", "setting": "[2]", "result": 79, "unit": "%"}, {"measurement": "octanal % reduction", "setting": "[2]", "result": 72.3, "unit": "%"}, {"measurement": "retention time 22.9 % reduction", "setting": "[2]", "result": 51.3, "unit": "%"}, {"measurement": "retention time 27.7 % reduction", "setting": "[2]", "result": 72.7, "unit": "%"}, {"measurement": "retention time 29.8 % reduction", "setting": "[2]", "result": 70.5, "unit": "%"}, {"measurement": "retention time 30.6 % reduction", "setting": "[2]", "result": 65.5, "unit": "%"}, {"measurement": "retention time 31.05 % reduction", "setting": "[2]", "result": 68.1, "unit": "%"}, {"measurement": "retention time […] reduction", "setting": "[2]", "result": 63.3, "unit": "%"}]}
{"smiles": "CN(C)CCO.CN(C)CCO.O=C(O)CCC(=O)C(=O)O", "note": "[AKG DiDeanol]", "values": [{"measurement": "POV Treated Perfume", "setting": "[3]; […] (24 hours), 1.0% w/v in model perfume", "result": 0.0, "unit": "mmol/L"}]}
{"smiles": "CCC(CC)(C(=O)[O-])C(=O)C(=O)O.[Na+]", "note": "[Diethyloxaloacetate, Sodium Salt]", "values": [{"measurement": "% POV Reduction", "setting": "[3]; 165 Minutes after addition of treating compound", "result": 36.9, "unit": "%"}, {"measurement": "% POV Reduction", "setting": "[3]; 24 hours after addition of treating compound", "result": 92.7, "unit": "%"}]}
